Values quoted from earlier work in patent US20220160890A1, “SURVIVAL-TARGETING CHIMERIC (SURTAC) MOLECULES” (Locki Therapeutics Limited, priority 2019, published 2022).

How the values were obtained:
p53-HDM-2 interaction = p53-HDM-2 interaction (Homo sapiens, UniProt P04637); conditions: in vitro and in vivo
p53 [1] = target: T1, p53 (Homo sapiens, UniProt P04637)
T1 construct: various tumor cells lines expressing wild-type p53

[2] = system: tumor cells lines expressing wild-type p53; conditions: tumor cell lines expressing wild-type p53
p53 [3] = target: T1, p53; remark: listed apart in the source

T1 sequence (P04637 whole entry): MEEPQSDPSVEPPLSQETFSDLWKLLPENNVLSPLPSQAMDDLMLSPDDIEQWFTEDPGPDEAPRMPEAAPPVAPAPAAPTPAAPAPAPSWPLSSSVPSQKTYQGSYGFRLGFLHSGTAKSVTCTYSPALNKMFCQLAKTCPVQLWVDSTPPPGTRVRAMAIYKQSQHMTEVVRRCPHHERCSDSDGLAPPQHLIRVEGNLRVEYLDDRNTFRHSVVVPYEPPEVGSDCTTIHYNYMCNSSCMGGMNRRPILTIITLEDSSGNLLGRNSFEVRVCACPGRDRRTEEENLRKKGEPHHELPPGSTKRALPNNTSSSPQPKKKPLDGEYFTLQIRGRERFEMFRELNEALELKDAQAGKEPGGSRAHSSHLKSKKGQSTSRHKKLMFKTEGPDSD
Chain of p53-HDM-2 interaction (P04637 whole entry): as above

For `OCc1ccc(-c2ccc(-c3ccc(CO)s3)o2)s1` [RITA, 2,5-bis(5-hydroxymethyl-2-thienyl)furan], the p53-HDM-2 interaction (p53-HDM-2 interaction) is given as “prevents p53-HDM-2 interaction”, the “accumulation of p53 in tumor cells” value (p53 [1]) is given as “induces its accumulation in tumor cells” and the apoptosis [2] is given as “massive apoptosis”. For the same compound, the “expression of p53 target genes” value [2] was “induced expression of p53 target genes” and the “binding to p53” value (p53 [3]) was “binds to p53”.
